A word on the EC50: it is the midpoint of the concentration-response curve. As usually defined, the inhibition is the change of the read-out against control, counted positive when it falls.

Results on three compounds are retold here after patent US6288056A, “Intermittent claudication therapeutic drugs comprising pyrroloazepines” (Suntory Limited, priority 1999, dated 2001).

The subject of one experiment is Renal artery. In words: Relaxation of vasoconstriction induced by supernatant of aggregated platelets, renal artery. Further details: species or system male Japanese white rabbit. Conditions: Oryctolagus cuniculus, aggregated platelet supernatant 1/100-fold dilution, read-out: EC50 (50% relaxation). As to the method: (§1) After a male Japanese white rabbit was anesthetized by intramuscular administration of ketamine (product of sankyo Company, Limited) at 50 mg/kg, a polyethylene-made catheter ["PE240" (trade name), manufactured by Becton Dickinson Co., Ltd.] was inserted into a carotid artery, and the blood was collected with a tube containing a 1/10 volume of a 3.8% aqueous solution of sodium citrate [NACALAI TESQUE, Inc.]. The blood so collected was centrifuged at 90 g (900 rpm) for 15 minutes ["05PR-22" (trade name), manufactured by Hitachi Koki Co., Ltd.] and platelet-rich plasma (PRP) was collected from the upper layer.
(§2) After addition of an equiamount of buffer A (25 mM Tris-HCl, 130 mM NaCl, 1.5 mM EDTA, pH 7.4), to PRP, the mixture was centrifuged at 4° C. and 1,500 g (3,000 rpm) for 10 minutes. The thus-obtained platelet pellet was suspended again in buffer A, followed by centrifugation at 4° C. and 1,500 g (3,000 rpm) for 5 minutes. The resulting platelet pellet was suspended again in buffer B (25 mM Tris-HCl, 130 mM NaCl, 0.3 mM EDTA, pH 7.4), followed by centrifugation under the same conditions. […]
(§3) After the vascular strip preparations had been left over for about 1 hour and their resting tensions had been confirmed to become stable, the tonicities of the vascular strip preparations were measured using the isometric transducers. […]

The next experiment has as its system Pulmonary artery. Description: Relaxation of vasoconstriction induced by supernatant of aggregated platelets, pulmonary artery. Further details: species or system male Japanese white rabbit. Conditions: Oryctolagus cuniculus, aggregated platelet supernatant 1/100-fold dilution, read-out: EC50 (50% relaxation). The protocol: as §1, §2, §3
In the next experiment the test system is Femoral artery. Description: Relaxation of vasoconstriction induced by supernatant of aggregated platelets, femoral artery. Also on record: species or system male Japanese white rabbit. Conditions: Oryctolagus cuniculus, aggregated platelet supernatant 1/100-fold dilution, read-out: EC50 (50% relaxation). As to the method:
as §1, §2, §3

In another experiment the test system is Mesenteric artery. In words: Relaxation of vasoconstriction induced by supernatant of aggregated platelets, mesenteric artery. Also on record: species or system male Japanese white rabbit. Particulars: Oryctolagus cuniculus, aggregated platelet supernatant 1/100-fold dilution, read-out: EC50 (50% relaxation). As to the method: as §1, §2, §3
For experiment [1], the system named is pulmonary thromboembolic death. Description: Inhibitory Action in Mouse Pulmonary Thromboembolic Death. The class given is in vivo, male ddY mice. Particulars: 3 mg/kg oral; within 10 minutes after injection of collagen 1 mg/kg and serotonin hydrochloride 5 mg/kg. As to the method:
Male ddY mice which ranged in age from 4 to 5 weeks were used after fasted overnight. Suspensions of Compounds a-c, which will be specified subsequently herein, in a 0.5% aqueous solution of carboxymethylcellulose sodium were orally administered at 3 mg/kg.
After 1 hour, collagen [1 mg/kg, "Collagenreagent Form" (trade name), product of Moriya Sangyo Co., Ltd.] and serotonin hydrochloride (5 mg/kg, product of Sigma Chemical Co.) were injected through the candal veins.
An investigation was made for mortality rates of mice within 10 minutes after the injection.

For a further experiment, the system named is Basilar artery. In words: Relaxation of vasoconstriction induced by supernatant of aggregated platelets, basilar artery. Further details: species or system male Japanese white rabbit. Particulars: Oryctolagus cuniculus, aggregated platelet supernatant 1/100-fold dilution, read-out: EC50 (50% relaxation). As to the method: as §1, §2, §3
For experiment [2], the system named is gastrocnemius-plantaris-sole muscle (GPS muscle). Description: Test in Rat Intermittent Claudication Model (muscle contraction force after collagen infusion). Conditions: 20 minutes after collagen infusion. The class given is in vivo, male Wistar rats. The protocol:
Based on the methods proposed by Angersbach, D. et al. in Int. J. Microcirc. Clin. Exp., 7, 15-30 (1988) and by Loots, W. et al. in Am. J. Physiol. 265, H158-H164 (1993), an intermittent claudication model was designed as will be described next. Firstly, male Wistar rats which ranged in age from 9 to 10 weeks were ligated at right femoral arteries under anesthesia with pentobanbital [40 mg/kg, intraperitoneal administration, "Nembutal Injection" (trademark), product of Dainabot Co., Ltd.] and were fed for 1 week. After fasted overnight, a suspension of (-)-(S)-5-[3-[4-(4-fluorophenyl)piperazin-1-yl]propyl]-8-hydroxy-1-methyl- 1,4,5,6,7,8-hexahydropyrrolo[3,2-c]azepin-4-one (test compound a) in a 0.5% aqueous solution of carboxymethylcellulose sodium salt was orally administered at 1, 3 and 10 mg/kg, respectively.
After an elapsed time of 60 minutes since the administration, each rat was subjected to anesthetization with urethan ([…], intraperitoneal administration, product of Sigma Chemical Co.) and α-chloralose ([…], intraperitoneal administration, product of NACALAI TESQUE, INC.). To administer collagen into artery, a cannula ["SP-31" (trade name), manufactured by Natsume Seisakusho Co., Ltd.] was inserted through the left carotid artery such that its leading end was located on a proximal side of the branching point of the iliac artery. Thereafter, the rat was held in a prone position, and the skin of the right hind leg was flayed to expose the gastrocnemius-plantaris-sole muscle (GPS muscle). The Achilles tendon was bound and cut off, connected to an isometric tension meter ["CBE-1 10 kg" (trade name), manufactured by MINEBEA Co., Ltd.], and then held in place with a resting tension of about 100 g. […] Contraction force produced upon electric stimulation was recorded [amplifier: "AP-620G" (trade name), manufactured by Nihon Kohden Corporation, recorder: "WT-645G" (trade name), manufactured by Nihon Kohden Corporation]. […]

In experiment [3] the test system is platelet aggregation (platelet-rich plasma). In words: Inhibitory Effect on Canine Platelet Aggregation (ex vivo after oral administration, collagen + serotonin). Conditions: Canis lupus familiaris, 0.1 mg/kg oral, collagen + serotonin 1 μM, read-out: Aggregation inhibition rate. It counts as in vivo, canine (male beagles). The protocol:
Four male beagles which ranged in age from 17 to 19 months were used after fasted overnight. A suspension of (-)-(S)-5-[3-[4-(4-fluorophenyl)piperazin-1-yl]propyl]-8-hydroxy-1-methyl- 1,4,5,6,7,8-hexahydropyrrolo[3,2-c]azepin-4-one (test compound a) in a 0.5% aqueous solution of carboxymethylcellulose sodium salt was orally administered at 0.1 mg/kg. Before the administration of the test compound and after elapsed times of 1, 2, 4 and 6 hours from the administration, blood samples were collected from the foreleg veins. The blood was sampled using syringes containing a 1/10 volume of a 3.8% aqueous solution of sodium citrate ["cytorate for ESR Measurement" (trade name), product of The Green Cross Corp.].
Each collected blood sample was centrifuged at room temperature and 190 g for 7 minutes, and the upper layer, platelet-rich plasma (PRP), was collected. The remaining blood was centrifuged at 1,500 g for 10 minutes, and the upper layer, platelet-poor plasma (PPP), was collected. Using collagen [final concentration: 0.03 to 5 μg/ml, "Collagenreagent Form" (trade name), product of Moriya Sangyo Co., Ltd.] and serotonin (final concentration: 1 μM, serotonin hydrochloride, product of Sigma Chemical Co.) as a platelet proaggrecant, the platelet aggregating ability was measured by the Born turbidimetry. Specifically, using PPP as a control, a solution of calcium chloride (product of NACALAI TESQUE, INC.) was added to PRP at 37° C. to give a final concentration of 1 mM. After 2 minutes, the proaggrecant was added. Variations in transmittance, which took place in the course of subsequent 10 minutes, were measured using a platelet aggregometer measuring instrument ["PAM-8C" (trade name), manufactured by MEBANCS, INC.], and its maximum value was recorded as a platelet aggregation rate (%). […] As an aggregation inhibition rate, the proportion of an aggregation rate after the administration of the test compound relative to an aggregation rate before the administration of the test compound was shown in percentage.

For the next experiment, the system named is Coronary artery. Description: Relaxation of vasoconstriction induced by supernatant of aggregated platelets, coronary artery. Further details: species or system male Japanese white rabbit. Conditions: Oryctolagus cuniculus, aggregated platelet supernatant 1/100-fold dilution, read-out: EC50 (50% relaxation). The protocol: as §1, §2, §3

Read-outs that look alike come from different tables or passages of the source.

For `Cn1ccc2c1[C@@H](O)CCN(CCCN1CCN(c3ccc(F)cc3)CC1)C2=O` [Compound a, (-)-(S)-5-[3-[4-(4-fluorophenyl)piperazin-1-yl]propyl]-8-hydroxy-1-methyl-1,4,5,6,7,8-hexahydropyrrolo[3,2-c]azepin-4-one], the EC50 is 0.246 ± 0.079 µM with Renal artery; 0.014 ± 0.003 µM in the experiment with Pulmonary artery; 0.328 ± 0.112 µM in the experiment with Femoral artery; 0.032 ± 0.022 µM in the experiment with Mesenteric artery; 0.138 ± 0.055 µM in the experiment on Basilar artery; 0.254 ± 0.054 µM in the experiment with Coronary artery. Also, in experiment [1], the Mortality rate came out at 10%. Further, the Contraction force is listed as 93 ± 17 g in experiment [2] (1 mg/kg oral), 116 ± 15 g in experiment [2] (3 mg/kg oral) and 122 ± 10 g in experiment [2] (10 mg/kg oral). For the same compound, the inhibition at 0.1 mg/kg was 99.7 ± 0.3% in experiment [3] (1 hr after administration), 99.8 ± 0.2% in [3] (2 hr after administration), 99.3 ± 0.7% in experiment [3] (4 hr after administration) and 72.5 ± 16.1% in [3] (6 hr after administration).
`Cc1cn(C)c2c1C(=O)N(CCCN1CCN(c3ccc(F)cc3)CC1)CCC2O` (stereo not shown) [Compound c, 5-[3-[4-(4-fluorophenyl)piperazin-1-yl]propyl]-8-hydroxy-1,3-dimethyl-1,4,5,6,7,8-hexahydropyrrolo[3,2-c]azepin-4-one] showed a Mortality rate in experiment [1] of 30%.
In turn, `Cn1ccc2c1C(O)CCN(CCCN1CCN(c3ccc(F)cc3)CC1)C2=O` (racemic) [Compound b, (±)-5-[3-[4-(4-fluorophenyl)piperazin-1-yl]propyl]-8-hydroxy-1-methyl-1,4,5,6,7,8-hexahydropyrrolo[3,2-c]azepin-4-one] came in with a Mortality rate in experiment [1] of 25%.
